Reference: US4505898A, “Derivatives of acetylsalicylic acid and substituted phenylacetic acids and compositions containing them” (priority 1983, dated 1985)

Key:
[1] = tested on: carrageenin-induced paw oedema; test: inhibition of experimentally-induced (carrageenin) paw oedema in rats; format: in vivo; settings: rats fasted 18 hours; compound in aqueous 1% tragacanth, 25 ml/kg, 45 min before subplantar 0.1 ml 1% carrageenin; dose not given
Procedure: For this purpose, the well known test for the inhibition of experimentally-induced paw oedema in rats was used. The test was carried out as follows.
The rats are fasted 18 hours prior to dosing, but water is made available to them. Test compounds are then administered in aqueous 1% tragacanth at a dose volume of 25 ml/kg body weight. One group of rats is given vehicle only at the same dose volume. Forty five minutes later, all rats are given a subplantar injection of 0.1 ml of a 1% solution of carrageenin in 0.9% saline in the left hind paw. The volume of this paw is measured before and after the carrageenin injection using a volume differential meter designed by Ugo Basile.
Anti-inflammatory activity is measured as the percentage inhibition of paw oedema in the drug treated animals compared to the controls.

[2] = background statement, no test described; cited from earlier work

Compound	Anti-inflammatory activity (percentage inhibition of paw oedema compared to controls) [1]	anti-inflammatory activity compared with Alclofenac [2]
C=CCOc1ccc(CC(=O)NC(C)C(=O)OC)cc1Cl (racemic) [Compound 2, 4-allyloxy-3-chloro-phenylacetyl-(DL)-alanine methyl ester]	23.1%	–
CCCOc1ccc(CC(=O)O)cc1Cl [4-n-propoxy-3-chloro-phenylacetic acid]	–	much reduced anti-inflammatory activity as compared with Alclofenac
C=CCOc1ccc(CC(=O)NCC(=O)O)cc1Cl [Compound 3, 4-allyloxy-3-chloro-phenylacetyl-glycine]	34.6%	–
C=CCOc1ccc(CC(=O)O)cc1Cl [Compound 1, 4-allyloxy-3-chloro-phenylacetic acid, reference compound]	36.0%	–
CCCOc1ccc(CC(=O)NCC(=O)O)cc1Cl [Compound 4, 4-n-propoxy-3-chloro-phenylacetyl-glycine]	35.2%	–
